# Laboratory results taken from patent publication US8178545B2, “Dual small molecule inhibitors of cancer and angiogenesis” (University of Virginia Patent Foundation, priority 2004, dated 2012).
# Entries after “also recorded” stand apart in the source; their conditions may differ. Like-named read-outs stand apart in the source and are kept apart here.
# Legend:
# HT29 [1] = conditions: NCI data; cited from earlier work
# COLO205 [2] = conditions: NCI data; cited from earlier work
# HCC-2998 [3] = conditions: NCI data; cited from earlier work
# KM12 [4] = conditions: NCI data; cited from earlier work
# SW-620 [5] = conditions: NCI data; cited from earlier work
# HCT-15 [6] = conditions: NCI data; cited from earlier work
# HCT-116 [7] = conditions: NCI data; cited from earlier work
# HeLa cells = assay: Mitotic spindle formation; type: cell-based; conditions: low micromolar concentrations
# A-10 cells = assay: Cell based phenotypic screen of microtubule disruption
# From the text: FIG. 2 Depicts the microtubule depolymerizing effects of SC-2-71 in A-10 cells.
# The microtubule disrupting effects of SC-2-71 were detected in a cell based phenotypic screen (FIG. 2). […] This effect is consistent with the effects observed from other microtubule depolymerizers. […] This is also a hallmark of microtubule disrupting compounds. Depolymerization of interphase microtubules is a classic response of cells to relatively high concentrations of microtubule disruptors such as the vinca alkaloids.
# MDA-MB-435 cells [8] = assay: Cell cycle progression by flow cytometry; type: cell-based; conditions: 3 μM for 18 h, Krishan's reagent
# Procedure: The effects of SC-2-71 on cell cycle progression were determined using flow cytometry techniques. MDA-MB-435 cells were treated with 3 μM SC-2-71 for 18 h, stained with Krishan's reagent and DNA content analyzed.
# MDA-MB-435 cells [9] = assay: Anti-proliferative activity, SRB assay; type: cell-based; conditions: Homo sapiens
# [10] = tested on: NCI/ADR cells (Pgp expressing); assay: Proliferation of Pgp expressing cell line; type: cell-based; conditions: for IC50: Homo sapiens, NCI/ADR-RES; for Rr value: relative resistance, NCI/ADR vs MDA-MB-435
# From the text: Relative resistance (Rr) values can be calculated by dividing the IC50 of the […] cell line.
# tubulin = assay: Microtubule disruption / tubulin depolymerization; type: cell-based; conditions: for Microtubule activity (% depolymerization): at 5 μM
# NCI 60 human cell lines = NCI 60 human cell lines (GI50); type: cell-based; conditions: several cell lines of the NCI 60 panel
# From the text: FIG. 1 Depicts the effects of SC-2-71 against the NCI 60 human cell lines (GI50).
# Several interesting findings are evident.
# [11] = tested on: Human Umbilical Vein Endothelial Cells (HUVEC); assay: Endothelial cell proliferation; type: cell-based; conditions: triplicate, ± SEM
# From the text: (§1) Without wishing to be bound by any particular theory, strategies and experiments are described herein pertaining to developing an anti-cancer strategy of simultaneously inhibiting endothelial and cancer cells. […] The taxanes, taxol and docetaxel, vinblastine, vincristine and 2-methoxyestradiol all have anti-angiogenic activity in vivo. […] SC-2-71's ability to inhibit angiogenesis in an in vivo model was then examined.
# [12] = tested on: Human Microvessel Endothelial Cells (HMEC); assay: Endothelial cell proliferation; type: cell-based; conditions: triplicate, ± SEM
# From the text: as §1
# [13] = tested on: blood vessels on the chick chorioallantoic membrane; assay: Chick chorioallantoic membrane (CAM) model of blood vessel growth; type: in vivo; conditions: 100 μM, compared to control
# Procedure: SC-2-71 (100 μM) inhibited a translational model of blood vessel growth in vivo (CAM, FIG. 8, panel B and C) as compared to control (FIG. 8, panel A). This strongly establishes that SC-2-71 has anti-angiogenic activity. Further it raises the question as to the expression level of βIII tubulin in HMECs.
# HCT-116 [14] = assay: NCI anticancer drug screen, proliferation (GI50); type: cell-based; conditions: Homo sapiens, grade III tumor cells (HCT116)
# Procedure: (§2) SC-2-71 was evaluated against human cultured cell lines in the NCI Anticancer Drug Development Program. […] This includes potent inhibition of colon cancer cells from primary tumors, distal metastasis and ascites fluid.
# HT29 [15] = assay: NCI anticancer drug screen, proliferation (GI50); type: cell-based; conditions: Homo sapiens, HT-29
# Procedure: as §2
# SW-620 [16] = assay: NCI anticancer drug screen, proliferation (GI50); type: cell-based; conditions: Homo sapiens
# Procedure: as §2
# KM12 [17] = assay: NCI anticancer drug screen, proliferation (GI50); type: cell-based; conditions: Homo sapiens
# Procedure: as §2
# HCT-15 [18] = assay: NCI anticancer drug screen, proliferation (GI50); type: cell-based; conditions: Homo sapiens
# Procedure: as §2
# HCC-2998 [19] = assay: NCI anticancer drug screen, proliferation (GI50); type: cell-based; conditions: Homo sapiens
# Procedure: as §2
# COLO205 [20] = assay: NCI anticancer drug screen, proliferation (GI50); type: cell-based; conditions: Homo sapiens, COLO 205
# Procedure: as §2
# [21] = tested on: NCI/ADR cells (Pgp expressing); conditions: NCI/ADR (Pgp expressing) and MDA-MB-435 (Pgp deficient); Tinley et al. 2003; cited from earlier work
compound,measurement,setting,value
"O=c1[nH]cc(F)c(=O)[nH]1 [Compound 5FU, 5-Fluorouracil]",GI50,HT29 [1],6700 nM
same,GI50,COLO205 [2],7200 nM
same,GI50,HCC-2998 [3],1400 nM
same,GI50,KM12 [4],11100 nM
same,GI50,SW-620 [5],26200 nM
same,GI50,HCT-15 [6],5800 nM
same,GI50,HCT-116 [7],4000 nM
O=C1NC(c2ccc(-c3ccccc3)cc2)Nc2ccccc21 (stereo not drawn) [SC-2-71],mitotic spindles and mitotic accumulation,HeLa cells,formation of abnormal mitotic spindles and mitotic accumulation
same,micronucleation,A-10 cells,extensive micronucleation
same,effect on cellular microtubules,A-10 cells; interphase microtubule network,concentration dependent loss of cellular microtubules
same,cell cycle progression (DNA content),MDA-MB-435 cells [8],distinct mitotic accumulation
same,IC50,MDA-MB-435 cells [9],0.61 ± 0.1 µM
same,IC50,[10],1.8 ± 0.11 µM
same,transport by Pgp,[10]; inferred from Rr values,poor substrate for transport by Pgp
same,Rr value,[10],2.95
same,Microtubule activity (% depolymerization),tubulin,50%
same,GI50,NCI 60 human cell lines,> 100000 nM
same,IC50,"[11]; Homo sapiens, HUVEC",1600 nM
same,IC50,[11],1660 ± 500 nM
same,IC50,[12],20000 nM
same,blood vessel growth (CAM),[13],inhibited
same,GI50,HCT-116 [14],500 nM
same,GI50,HT29 [15],1000 nM
same,GI50,SW-620 [16],4000 nM
same,GI50,KM12 [17],2000 nM
same,GI50,HCT-15 [18],400 nM
same,GI50,"HCC-2998 [19]; HCC 2998, colon HCC2998, read-out: lowest GI50",68 nM
same,GI50,"HCC-2998 [19]; HCC-2998, read-out: GI50",68 nM
same,GI50,COLO205 [20],900 nM
O=C(c1ccccc1)c1ccc(C2NC(=O)c3ccccc3N2)cc1 (stereo not drawn) [SC-4-283],IC50,MDA-MB-435 cells [9],0.9 ± 0.3 µM
same,inhibition of tubulin polymerization,tubulin,improved inhibitory activity in relation to SC-2-71; also recorded: potent inhibitor of tubulin polymerization
same,Microtubule activity (% depolymerization),tubulin,50% at 5 μM
O=C(c1ccccc1)c1ccc(C2NC(=O)c3ccccc3N2)cc1Cl (stereo not drawn) [SC-5-87],IC50,MDA-MB-435 cells [9],0.26 ± 0.02 µM
same,IC50,[10],0.76 ± 0.01 µM
same,Rr value,[10],2.9
same,Microtubule activity (% depolymerization),tubulin,90% at 5 μM
Cc1ccccc1-c1ccc(C2NC(=O)c3ccccc3N2)cc1 (stereo not drawn) [SC-5-121],IC50,MDA-MB-435 cells [9],0.6 ± 0.1 µM
same,IC50,[10],0.88 ± 0.03 µM
same,Rr value,[10],1.2
same,Microtubule activity (% depolymerization),tubulin,90% at 5 μM
CC[C@]1(O)C[C@H]2CN(CCc3c([nH]c4ccccc34)[C@@](C(=O)OC)(c3cc4c(cc3OC)N(C=O)[C@H]3[C@@](O)(C(=O)OC)[C@H](OC(C)=O)[C@]5(CC)C=CCN6CC[C@]43[C@@H]65)C2)C1 [Vincristine],GI50,HT29 [1],110 nM
same,GI50,COLO205 [2],120 nM
same,GI50,HCC-2998 [3],110 nM
same,GI50,KM12 [4],120 nM
same,GI50,SW-620 [5],110 nM
same,GI50,HCT-15 [6],140 nM
same,GI50,HCT-116 [7],120 nM
CC(=O)O[C@H]1C(=O)[C@@]2(C)[C@H]([C@H](OC(=O)c3ccccc3)[C@]3(O)C[C@H](OC(=O)[C@H](O)[C@@H](NC(=O)c4ccccc4)c4ccccc4)C(C)=C1C3(C)C)[C@]1(OC(C)=O)CO[C@@H]1C[C@@H]2O [taxol],Rr value,[21],827
